According to the supplement of paper PMC10307832:

Key:
Experiment in all cases: relative viability (nuclei count vs DMSO), 5 days (fraction); higher = more cells survive
GSK126 + Navitoclax = compound: CC[C@H](C)N1C=C(C2=C(C=C(C=C21)C3=CN=C(C=C3)N4CCNCC4)C(=O)NCC5=C(C=C(NC5=O)C)C)C [GSK126] + CC1(C)CCC(c2ccc(Cl)cc2)=C(CN2CCN(c3ccc(C(=O)NS(=O)(=O)c4ccc(N[C@H](CCN5CCOCC5)CSc5ccccc5)c(S(=O)(=O)C(F)(F)F)c4)cc3)CC2)C1 [Navitoclax] (partner 0.5 µM)
Outline: (§1)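 The day after seeding in 1536-well plates, lung cancer cell lines were treated by pin tool with a single drug, or with a fixed anchor-drug dose together with five library-drug doses (not always all listed) in √10 steps. After 5 days, a combined fix-and-stain solution (final 0.05% Triton X-100, 1% formaldehyde, 1 ug/ml Hoechst) was added. Nuclei counted on 4× images gave relative viability as treated counts over vehicle counts, reported as the median of duplicate plates.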

MLN4924 + Lapatinib = compound: NS(=O)(=O)OC[C@@H]1C[C@@H](n2ccc3c(N[C@H]4CCc5ccccc54)ncnc32)C[C@@H]1O [MLN4924] + CS(=O)(=O)CCNCc1ccc(-c2ccc3ncnc(Nc4ccc(OCc5cccc(F)c5)c(Cl)c4)c3c2)o1 [Lapatinib] (partner 2 µM)
Outline: as §1

MLN4924 + Palbociclib = compound: NS(=O)(=O)OC[C@@H]1C[C@@H](n2ccc3c(N[C@H]4CCc5ccccc54)ncnc32)C[C@@H]1O [MLN4924] + CC(=O)c1c(C)c2cnc(Nc3ccc(N4CCNCC4)cn3)nc2n(C2CCCC2)c1=O [Palbociclib] (partner 0.5 µM)
Outline: as §1

MLN4924 + Luminespib = compound: NS(=O)(=O)OC[C@@H]1C[C@@H](n2ccc3c(N[C@H]4CCc5ccccc54)ncnc32)C[C@@H]1O [MLN4924] + CCNC(=O)c1noc(-c2cc(C(C)C)c(O)cc2O)c1-c1ccc(CN2CCOCC2)cc1 [Luminespib] (partner 0.01 µM)
Outline: as §1

| Cell Line | relative viability (GSK126 + Navitoclax; first compound 0.08 µM) | relative viability (GSK126 + Navitoclax; first compound 0.253 µM) | relative viability (GSK126 + Navitoclax; first compound 0.8 µM) | relative viability (GSK126 + Navitoclax; first compound 2.53 µM) | relative viability (GSK126 + Navitoclax; first compound 8 µM) | relative viability (MLN4924 + Lapatinib; first compound 0.04 µM) | relative viability (MLN4924 + Lapatinib; first compound 0.1265 µM) | relative viability (MLN4924 + Lapatinib; first compound 0.4 µM) | relative viability (MLN4924 + Lapatinib; first compound 1.265 µM) | relative viability (MLN4924 + Lapatinib; first compound 4 µM) | relative viability (MLN4924 + Palbociclib; first compound 0.04 µM) | relative viability (MLN4924 + Palbociclib; first compound 0.1265 µM) | relative viability (MLN4924 + Palbociclib; first compound 0.4 µM) | relative viability (MLN4924 + Palbociclib; first compound 1.265 µM) | relative viability (MLN4924 + Palbociclib; first compound 4 µM) | relative viability (MLN4924 + Luminespib; first compound 0.04 µM) | relative viability (MLN4924 + Luminespib; first compound 0.1265 µM) | relative viability (MLN4924 + Luminespib; first compound 0.4 µM) | relative viability (MLN4924 + Luminespib; first compound 1.265 µM) | relative viability (MLN4924 + Luminespib; first compound 4 µM) |
| --- | --- | --- | --- | --- | --- | --- | --- | --- | --- | --- | --- | --- | --- | --- | --- | --- | --- | --- | --- | --- |
| 201T | 1.18 | 1.27 | 1.27 | 1.26 | 1.32 | 1.13 | 1.09 | 0.826 | 0.384 | 0.417 | 0.395 | 0.353 | 0.354 | 0.219 | 0.26 | 1.15 | 0.916 | 0.887 | 0.384 | 0.29 |
| A549 | 1.37 | 1.28 | 1.23 | 1.24 | 1.13 | 0.71 | 0.667 | 0.079 | 0.0634 | 0.0662 |  |  |  |  |  |  |  |  |  |  |
| A-427 | 1.04 | 1 | 0.836 | 0.959 | 0.845 | 0.589 | 0.608 | 0.268 | 0.196 | 0.169 | 0.381 | 0.339 | 0.321 | 0.29 | 0.282 | 0.465 | 0.245 | 0.263 | 0.178 | 0.216 |
| ABC-1 |  |  |  |  |  | 1.11 | 1.45 | 1.71 | 0.773 | 0.552 | 1 | 1.02 | 0.695 | 0.316 | 0.498 | 1.14 | 0.548 | 0.306 | 0.184 | 0.24 |
| BEN | 0.0742 | 0.0598 | 0.0517 | 0.0958 | 0.0522 | 0.671 | 0.522 | 0.249 | 0.145 | 0.104 | 0.402 | 0.411 | 0.374 | 0.285 | 0.222 | 0.292 | 0.201 | 0.27 | 0.138 | 0.158 |
| CAL-12T | 1.27 | 1.27 | 0.967 | 1.1 | 1.33 |  | 0.603 | 0.354 | 0.198 | 0.243 | 0.403 | 0.254 | 0.161 | 0.122 | 0.182 | 0.488 | 0.56 | 0.262 | 0.192 | 0.307 |
| COR-L23 | 1.17 | 1.01 | 0.834 | 0.95 | 0.968 | 0.921 | 0.672 | 0.431 | 0.142 | 0.106 | 0.267 | 0.3 | 0.215 | 0.0984 | 0.105 | 0.67 | 0.569 | 0.42 | 0.174 | 0.139 |
| COR-L 105 | 0.813 | 0.745 | 0.754 | 0.678 | 0.719 | 0.355 | 0.335 | 0.337 | 0.282 | 0.281 | 0.414 | 0.395 | 0.337 | 0.321 | 0.34 | 0.494 | 0.553 | 0.283 | 0.201 | 0.236 |
| Calu-6 | 0.936 | 0.858 | 0.853 | 0.842 | 0.795 | 0.868 | 0.6 | 0.211 | 0.122 | 0.129 |  |  |  |  |  |  |  |  |  |  |
| ChaGo-K-1 | 1.19 | 0.925 | 1.03 | 1.27 | 1.09 |  |  |  |  |  | 0.75 | 0.419 | 0.365 | 0.184 | 0.159 | 0.469 | 0.399 | 0.258 | 0.256 | 0.177 |
| EBC-1 | 0.449 | 0.407 | 0.365 | 0.477 | 0.362 | 0.246 | 0.297 | 0.228 | 0.191 | 0.216 |  |  |  |  |  |  |  |  |  |  |
| EKVX | 0.984 | 0.95 | 0.902 | 0.97 | 0.853 | 0.208 | 0.311 | 0.19 | 0.119 | 0.102 | 0.389 | 0.362 | 0.334 | 0.188 | 0.142 | 0.943 | 0.756 | 0.682 | 0.257 | 0.166 |
| EMC-BAC-2 | 1.09 | 1.18 | 1.14 | 1.18 | 1.23 | 0.468 | 0.913 | 0.303 | 0.217 | 0.178 | 0.559 | 0.431 | 0.386 | 0.265 | 0.312 | 0.906 | 0.495 | 0.303 | 0.276 | 0.325 |
| EPLC-272H | 1.24 | 1.15 | 1.29 | 1.17 | 1.2 | 0.848 | 0.805 | 0.106 | 0.119 | 0.165 | 0.29 | 0.281 | 0.102 | 0.232 | 0.181 | 0.328 | 0.152 | 0.219 | 0.164 | 0.143 |
| H3255 | 0.591 | 0.606 | 0.5 | 0.522 | 0.505 | 0.253 | 0.38 | 0.201 | 0.185 | 0.208 | 0.299 | 0.283 | 0.259 | 0.308 | 0.274 | 0.843 | 0.73 | 0.541 | 0.288 | 0.292 |
| HARA | 1.18 | 1.11 | 1.1 | 1.15 | 1.14 | 0.856 | 0.607 | 0.283 | 0.0754 | 0.0741 | 0.324 | 0.233 | 0.169 | 0.0893 | 0.147 | 0.683 | 0.618 | 0.291 | 0.0565 | 0.0527 |
| HCC-15 | 0.719 | 0.662 | 0.658 | 0.676 | 0.623 | 0.514 | 0.374 | 0.115 | 0.0895 | 0.0956 | 0.477 | 0.172 | 0.196 | 0.0952 | 0.101 | 0.168 | 0.171 | 0.161 | 0.125 | 0.0876 |
